The source of these data is BindingDB's records for doi:10.7270/Q25B012X (Burnham Center For Chemical Genomics, 2012).

Protein Wnt-3a, sequence (P27467 whole entry): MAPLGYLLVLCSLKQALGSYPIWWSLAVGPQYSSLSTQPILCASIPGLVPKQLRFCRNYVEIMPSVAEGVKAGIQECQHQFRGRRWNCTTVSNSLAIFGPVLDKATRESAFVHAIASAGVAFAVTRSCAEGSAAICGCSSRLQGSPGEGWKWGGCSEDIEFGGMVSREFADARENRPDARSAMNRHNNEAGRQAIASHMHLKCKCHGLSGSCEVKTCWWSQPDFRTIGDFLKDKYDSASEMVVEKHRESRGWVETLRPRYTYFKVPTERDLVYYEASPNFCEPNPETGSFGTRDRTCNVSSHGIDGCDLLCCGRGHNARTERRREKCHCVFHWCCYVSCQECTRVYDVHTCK

The experiment concerns the target Protein Wnt-3a (Mus musculus, UniProt P27467).
In the case of `O=C(CCCCCCC(=O)Nc1ccccc1)NO` [Zolinza], the half-maximal inhibitory concentration (IC50) (in general, the point on the concentration scale where inhibition reaches its midpoint) is greater than 50 µM.

Compound `O=C(COC(=O)c1ccc2[nH]c3c(c2c1)CCCC3)Nc1ccccc1Cl` [[2-[(2-chlorophenyl)amino]-2-oxidanylidene-ethyl] 6,7,8,9-tetrahydro-5H-carbazole-3-carboxylate] showed an IC50 greater than 50 µM.

Turning to `CCOc1ccc2[nH]c3c(N4CCN(C(=O)c5ccco5)CC4)ncnc3c2c1` [[4-(8-ethoxy-5H-pyrimido[5,4-b]indol-4-yl)-1-piperazinyl]-(2-furanyl)methanone], the IC50 was greater than 50 µM.

`Cc1ccc(S(=O)(=O)N2CCN(C(=O)c3ccc(S(=O)(=O)N4CCCC4)cc3)CC2)cc1` [[4-(Pyrrolidine-1-sulfonyl)-phenyl]-[4-(toluene-4-sulfonyl)-piperazin-1-yl]-methanone] displayed an IC50 greater than 50 µM.
